The structures appear in SMILES notation.

This data set is described as follows: Human HepG2 cell viability assay in 384 well format. The format is toxicity, cell-based. The arrangement: dose 125 nL, time 70.5 hour; cytotoxicity at 70.5 h: concentration not given beside the values. The note with it: HepG2 cells, read-out: Inhibition.
Consider `CC(C)COc1cncc(N2CCCC(CC(N)=O)C2)n1` (configuration not stated), for which the cytotoxicity at 70.5 h was -1.79%.

For `CC(C)Oc1ccc(CN2CCCC(N3CCCC3)C2)cc1CO` (configuration not stated), the cytotoxicity at 70.5 h was 2.77%.

In the case of `CC(C)COC1CCN(C(=O)c2ccc(C(F)(F)F)[nH]c2=O)CC1`, the cytotoxicity at 70.5 h was -4.17%.

In the case of `COCC(=O)N1C[C@H]2CNC[C@@]2(C(=O)NCc2c(C)noc2C)C1`, the cytotoxicity at 70.5 h was -0.367%.

For `COc1nc2c(cc1C(=O)NCc1noc(Cc3cccs3)n1)CCC2`, the cytotoxicity at 70.5 h is -3.41%.

As to `CC(C)(C)OC(=O)N1CCC[C@H](NCC2CCOCC2)C1`, the cytotoxicity at 70.5 h is -0.369%.

`COC[C@]1(O)CCN(Cc2ccc(N(C)C)nc2)CC1(C)C`: the cytotoxicity at 70.5 h is -17.9%.

As to `O=C(CN1CC(n2cccn2)C1)NCCc1ccc(F)cc1`, the cytotoxicity at 70.5 h was -1.33%.

Regarding `Cc1nn(C)c2ncnc(N3CCCC(C)(O)C3)c12` (configuration not stated), the cytotoxicity at 70.5 h is -6.93%.

On to `CCCN1CCN(Cc2cccc(OCC(N)=O)c2)[C@H]2CS(=O)(=O)C[C@H]21`, for which the cytotoxicity at 70.5 h was 0.755%.

On to `COc1cccc2c1OCC(C(=O)NCc1c(C)noc1C)C2` (configuration not stated), for which the cytotoxicity at 70.5 h is -7.18%.

Consider `CNC(=O)c1cccc(CNC(C)c2ccc(F)cc2N(C)C)c1` (configuration not stated), for which the cytotoxicity at 70.5 h was -7.51%.

`Cc1cccc(OCC(=O)N(C)C2CCN(CC3CCOC3)CC2)c1` (configuration not stated): the cytotoxicity at 70.5 h is -9.11%.

As for `COc1ncc(C2(O)CCN(Cc3cccc(F)c3F)CC2)c(OC)n1`, the cytotoxicity at 70.5 h was -3.22%.

Take `Cc1cc(C)c2ncn(CC(C)(C)CO)c(=O)c2c1`: the cytotoxicity at 70.5 h was -6.8%.

As for `CC(C)(C)c1coc([C@@H]2COCCN2CC2CC2)n1`, the cytotoxicity at 70.5 h is -0.839%.

In the case of `CCN(CCn1cccn1)C(=O)CN1C(=O)OC[C@@H]1c1ccccc1`, the cytotoxicity at 70.5 h is -6.78%.

Regarding `COC[C@]12COC[C@H]1CN(Cc1ccc3ccccc3n1)C2`, the cytotoxicity at 70.5 h was -3.53%.

`Cc1cc(=O)c(C(=O)N2CCCCC2c2ccc(F)cc2)c[nH]1` (configuration not stated): the cytotoxicity at 70.5 h is -4.63%.

In the case of `COc1ccccc1C1(O)CCCN(C(=O)c2csc(C(C)=O)c2)C1` (configuration not stated), the cytotoxicity at 70.5 h is -1.27%.

As for `CC(OCC1CC1)C(=O)NCc1cccc(CN2CCCC2=O)c1` (configuration not stated), the cytotoxicity at 70.5 h is 1.05%.

For the compound `CCCS(=O)(=O)N1CCC(NC(=O)c2cc3ccccc3s2)CC1`, the cytotoxicity at 70.5 h was -6.56%.

Take `O=C1CO[C@@H]2CN(C3CCOCC3)C[C@H]2N1Cc1ccncc1`: the cytotoxicity at 70.5 h worked out at 4.06%.

`COCC[C@]1(O)CCN(Cc2nnc(C)s2)C[C@H]1C`: the cytotoxicity at 70.5 h was -9.14%.

For `CC(C)NC(=O)C(NC(=O)N1CCN(c2ccc(Cl)cc2)CC1)C(C)C` (configuration not stated), the cytotoxicity at 70.5 h was -13.3%.

`Cc1cnc2c(c1NCc1ccccn1)c(=O)n(C)c(=O)n2C`: the cytotoxicity at 70.5 h was -11.2%.

For `COc1ccc(Br)cc1SCCS(C)(=O)=O`, the cytotoxicity at 70.5 h is -4.19%.

Turning to `CN(C)CCN(Cc1ccccc1)C(=O)CN1CCCNC1=O`, the cytotoxicity at 70.5 h is -0.477%.

For the compound `CC(CC(=O)N1CCCS1(=O)=O)c1ccccc1C(F)(F)F` (configuration not stated), the cytotoxicity at 70.5 h was 3.27%.

Consider `O=C(C1CCCC1)N1CCC(C2CCN(Cc3ccc(Cl)cc3)C2)CC1` (configuration not stated), for which the cytotoxicity at 70.5 h is -2.34%.

Turning to `Cc1noc(C2(C)CCCN(C(=O)c3cccnc3)C2)n1` (configuration not stated), the cytotoxicity at 70.5 h is 11.1%.

On to `CCS(=O)(=O)N1CCC2(CC(=O)N(c3ccc4c(c3)OCO4)C2)C1` (configuration not stated), for which the cytotoxicity at 70.5 h amounted to 7.63%.

With `Cn1nc(C2CCCN2)c2c(C(=O)NCC(F)(F)F)cc(C3CC3)nc21` (configuration not stated), the cytotoxicity at 70.5 h was determined as 17.1%.

Turning to `CC(C)c1cc(NC2CCN(C(=O)N3CCCC3)CC2)ncn1`, the cytotoxicity at 70.5 h was 12.6%.

In the case of `COc1ccc(-n2cccn2)c(CN2CCC(O)(CO)CC2)c1`, the cytotoxicity at 70.5 h is -11.1%.

For `C[C@H]1CC[C@H](C(=O)N2CCC(n3cc(C4(O)CCCC4)nn3)CC2)CC1`, the cytotoxicity at 70.5 h was -16.2%.

Consider `CC(C)C(NC(=O)NCC1(CO)CC1)c1nnc2n1CCC2` (configuration not stated), for which the cytotoxicity at 70.5 h was -4.32%.

Turning to `Cn1cc(C[C@H]2[C@H](O)CCN2Cc2ccc3c(c2)OCO3)cn1`, the cytotoxicity at 70.5 h amounted to 6.92%.

`CNC(=O)[C@@H]1[C@@H](c2ccccc2)CN2CCN(Cc3cccs3)C[C@H]12`: the cytotoxicity at 70.5 h came out at 0.531%.

Take `C[S+]([O-])c1cccc(NC(=O)N(CCC#N)Cc2ccccn2)c1` (configuration not stated): the cytotoxicity at 70.5 h was -12%.

Regarding `CN(C)CCNC(=O)c1sccc1N(C)S(=O)(=O)c1ccc(Cl)cc1`, the cytotoxicity at 70.5 h was -17.4%.

On to `COCCn1cc(NCc2c[nH]nc2C(C)(C)C)cn1`, for which the cytotoxicity at 70.5 h is -4.3%.

Regarding `Cc1c(C2N3C[C@]4(C(C)C)CN2C[C@](C(C)C)(C3)C4=O)[nH]c(=O)[nH]c1=O` (some centres not stated), the cytotoxicity at 70.5 h is -4.97%.

`CCN1CC(=O)NCC12CCN(C(=O)c1ccno1)C2` (configuration not stated): the cytotoxicity at 70.5 h was found to be 2.94%.

For the compound `CNc1ncccc1CN1CCC1c1cc(N)nc(C)n1` (configuration not stated), the cytotoxicity at 70.5 h amounted to 12.5%.

For `Cc1nc(CN2CCC3(CCN(C(=O)c4ccoc4C)CC3)C2)cs1`, the cytotoxicity at 70.5 h was -6.97%.

In the case of `Cc1cnc(N2CCC(c3ccccc3)CC2)nc1-c1ccnn1C`, the cytotoxicity at 70.5 h is -6.13%.

For the compound `CN1CCN(CC2CCN(C(=O)CCC3CCCCC3)CC2)CC1`, the cytotoxicity at 70.5 h is -2.91%.

Consider `Cc1noc(C)c1CN1CCN(Cc2nccn2C)C(C)C1` (configuration not stated), for which the cytotoxicity at 70.5 h is -11.9%.

Turning to `c1ccc(-c2n[nH]c(CCNc3nnc(C4CCC4)o3)n2)cc1`, the cytotoxicity at 70.5 h was -7.22%.

With `CCc1nn(C)c2[nH]nc(NC(=O)c3cccnc3OC)c12`, the cytotoxicity at 70.5 h is -112%.

For the compound `CN(C)CCO[C@@H]1CC[C@H]2[C@H]1OCCN2C(=O)CCc1ccccc1`, the cytotoxicity at 70.5 h is -12.8%.

Take `CCOCC1CN(C(=O)c2cccs2)Cc2nn(C)cc21` (configuration not stated): the cytotoxicity at 70.5 h was -2.33%.

Regarding `COc1ccc(Br)c(C(=O)N2CCCC(c3nc(C)no3)C2)c1` (configuration not stated), the cytotoxicity at 70.5 h is -9.43%.

For `CC(O)CN1CCN(C(=O)CCOC(C)C)CC1` (configuration not stated), the cytotoxicity at 70.5 h is -3.79%.

`COc1ncccc1CN1CCC2(CC1)CC(OCC1CC1)CO2` (configuration not stated): the cytotoxicity at 70.5 h was -4.27%.

Regarding `CC(OCC1CC1)C(=O)Nc1ncn(CC(=O)N2CCCCCC2)n1` (configuration not stated), the cytotoxicity at 70.5 h is 10.7%.

Regarding `CS(=O)(=O)NCc1nnc2n1CCN(Cc1cccs1)CC2`, the cytotoxicity at 70.5 h is -4.32%.

Turning to `CNC(=O)c1cccnc1NCCOc1ccc(CC#N)cc1`, the cytotoxicity at 70.5 h is -0.53%.

`Cc1ccc(-c2ccnc(NCC3(N(C)C)CCOCC3)n2)c(C)n1`: the cytotoxicity at 70.5 h was -4%.

Take `Cc1ccnn1CCC(=O)N1CCN(C2CCc3ccccc3C2)CC1` (configuration not stated): the cytotoxicity at 70.5 h was -12.6%.

Regarding `CN(CCCc1ccccc1)C(=O)CCc1nc(-c2nnc[nH]2)no1`, the cytotoxicity at 70.5 h is -0.426%.

Consider `CCOc1ccc2nc(CN3CCC(CNC(C)=O)C3)ccc2c1` (configuration not stated), for which the cytotoxicity at 70.5 h turned out to be 1.6%.

Regarding `Cc1cc(C)c(CNC(=O)NCC(O)COc2ccccc2)c(=O)[nH]1` (configuration not stated), the cytotoxicity at 70.5 h is 21.6%.

In the case of `Cc1nnc2n1CCN(C(=O)C1CCC(n3cccc3)CC1)C2` (configuration not stated), the cytotoxicity at 70.5 h was -8.85%.

On to `c1cc(CNCC2CNc3ccnn3C2)cc(N2CCCCC2)n1` (configuration not stated), for which the cytotoxicity at 70.5 h amounted to 25.3%.

On to `Cc1ccc(N2CC[C@@H](NC(=O)c3cnccn3)[C@H](O)C2)nn1`, for which the cytotoxicity at 70.5 h was -7.78%.

For `O=c1[nH][nH]cc1-c1ccnc(NCCN2CCCCC2)n1`, the cytotoxicity at 70.5 h is 30.8%.

With `Cc1ccc(NS(=O)(=O)c2cc3c(c(C(=O)O)c2)OCCO3)c(F)c1`, the cytotoxicity at 70.5 h worked out at 44.6%.

On to `CCOC(=O)CNC(=O)N1CCOC(CCc2ccccc2)C1` (configuration not stated), for which the cytotoxicity at 70.5 h worked out at 15.8%.

For the compound `Cc1ccc(O)c(CNC2CCCN(Cc3noc(C4CC4)n3)C2)n1` (configuration not stated), the cytotoxicity at 70.5 h is -4.57%.

For `Cc1ccc(N2CCCC3(COCCN(c4nccs4)C3)C2)nn1` (configuration not stated), the cytotoxicity at 70.5 h is -9.95%.

`O=C(c1cnn2c(-c3ccco3)ccnc12)N1CCCCCC1`: the cytotoxicity at 70.5 h is -8.53%.

With `COc1ccc(NS(=O)(=O)CC2=NC(=O)n3cccc3C2=O)cc1Cl`, the cytotoxicity at 70.5 h was -8.91%.

Turning to `CC(c1ccccc1)N1Cc2nc(N(C)C)ncc2C1=O` (configuration not stated), the cytotoxicity at 70.5 h came to 49%.

As to `O=C(c1cccnc1N1CCOCC1)N1CCCC(n2cccn2)C1` (configuration not stated), the cytotoxicity at 70.5 h was -5.6%.

On to `Cc1cc(N(Cc2ccccc2F)C2CC2)n2nc(C(F)(F)F)nc2n1`, for which the cytotoxicity at 70.5 h is -1.77%.

Regarding `N#Cc1ccccc1CN1CCCC(c2nccn2CC2CCC2)C1` (configuration not stated), the cytotoxicity at 70.5 h was -11%.

As to `CC(C)NC(=O)CC1CC2(CCN(S(C)(=O)=O)CC2)c2ccccc21` (configuration not stated), the cytotoxicity at 70.5 h was 3.25%.

As for `CC(C)Cn1cc(NC(=O)NC(C)(C)c2nccs2)cn1`, the cytotoxicity at 70.5 h was -6.56%.

As to `COc1c(CNCCC(=O)Nc2cccc(C)n2)c(C(C)C)nn1C`, the cytotoxicity at 70.5 h was determined as 14.3%.

Take `CCC(CNC(=O)OC)(OC)c1ccccc1` (configuration not stated): the cytotoxicity at 70.5 h is -0.855%.

With `Cn1nccc1CN1CCCC(COc2ccccc2F)C1` (configuration not stated), the cytotoxicity at 70.5 h is -4.6%.

Take `O=C(c1ccc[nH]1)N1CCC(c2nccn2Cc2ccncc2)CC1`: the cytotoxicity at 70.5 h was -0.778%.

On to `CC(O)(CNC(=O)NCCc1ccc2c(c1)CCO2)c1ccccc1` (configuration not stated), for which the cytotoxicity at 70.5 h is -0.353%.

Turning to `Cc1c[nH]c(CN2CCCCC2CCn2cccn2)c(C)c1=O` (configuration not stated), the cytotoxicity at 70.5 h is -10.2%.

As for `Cc1nccc(N2CCCC2CCNS(C)(=O)=O)n1` (configuration not stated), the cytotoxicity at 70.5 h was -2.97%.

For the compound `CSCC[C@H](NC(C)=O)C(=O)N(C)Cc1ccc(-n2cccn2)cc1`, the cytotoxicity at 70.5 h came out at 23.9%.

Take `O=C1CC[C@]2(CC[C@@H](NC3CCOC3)CC2)N1Cc1ccncc1` (some centres not stated): the cytotoxicity at 70.5 h is -2.28%.

As to `Cc1cc(-c2cnc(N3CCCCCC3)nc2-c2cccnc2C)on1`, the cytotoxicity at 70.5 h is -12.8%.

With `COc1cc2cc(C)c(SCCN3CCCC3)nc2cc1OC`, the cytotoxicity at 70.5 h was -6.08%.

As for `CC(C)c1noc(CN2CCN(C(=O)c3ccncc3F)CC2)n1`, the cytotoxicity at 70.5 h is -9.24%.

`Cn1cc(CNCCOc2ccc(F)c(F)c2)c(-c2cccnc2)n1`: the cytotoxicity at 70.5 h was -5.61%.

For `CC(C)N(Cc1ccc(Cl)c(Cl)c1)C(=O)Cn1cncn1`, the cytotoxicity at 70.5 h is 1.18%.

For `CC(C)c1ccccc1NC(=O)N1C[C@@H]2CC[C@H](C1)N(C)C2=O`, the cytotoxicity at 70.5 h is 27.2%.

With `Cc1cccc(CN2C[C@@H]3COC[C@]3(CNC(=O)c3ccsc3)C2)n1`, the cytotoxicity at 70.5 h is -8.41%.

As to `Cc1nnc2ccc(C(=O)N3CCSC(C)(C)C3)cn12`, the cytotoxicity at 70.5 h worked out at 11.4%.

These data come from ChEMBL document CHEMBL3507680, “University of Dundee, Gates Library screen for HepG2 cell viability”.
